From patent US20120264825A1, “Amino Acid Perhydrates, Process for Their Preparation and Uses thereof” (priority 2009, published 2012)

Experiments:
[1] = Experimental: The compounds may be kept, for example, in closed vessels in a 4° C. refrigerator.
[2] = peak appears above the melting temperature; 2 degree/min under nitrogen flow
Experimental: TG and DSC studies were performed on Thermobalance, TG50 and differential scanning calorimeter, DSC 822 (Mettler, Toledo) in the range 25-200° C. under nitrogen flow at a heating rate of 2 degree/min.

N[C@@H](CO)C(=O)O.OO [Example 1, L-Serine Mono Hydrogen Peroxide Solvate C3H7NO3.H2O2]
hydrogen peroxide concentration on storage ([1]; room temperature, several months): maintained constant hydrogen peroxide concentration for several months | loss of active oxygen on storage ([1]; stored at room temperature for at least three weeks): no loss of active oxygen | exothermic decomposition peak (DSC) [2]: about 85 °C
